Measurements as given in US7217423B2, “Revitalising active complex for the skin” (Coty B.V., priority 2001, dated 2007).

Experiments:
[1] = tested on: dermal fibroblasts obtained from explanted normal human skin; assay: in-vitro anti-stress test under UV activity (LDH); type: cell-based; details: control group = 100%, mean of 5 tests
Experimental: In this test, a culture of dermal fibroblasts obtained from explanted normal human skin is subjected to UV-induced stress. The amounts of the enzyme lacticodes-hydrogenase (LDH) produced as a consequence of the aforesaid stress are proportional to the cell damage caused. The culture medium contained, for example, 3 wt. % of glycogen (Dermo-saccharides GY®), and a series of control tests without the aforesaid additive was carried out for comparative purposes.

[2] = tested on: cell homogenate of epithelial cells; assay: oxygraphy: stimulation of oxygen consumption; type: cell-based; details: control = 100%
Source text: Another synergy could be observed with regard to oxygraphy, i.e. the stimulation of the oxygen consumption of a cell homogenate of epithelial cells.

Row | Molecule | protection of cells after UV radiation ([1]; 2 wt. % creatine in culture liquid) | oxygen consumption ([2]; 2 wt. % creatine added to control liquid (buffer)) | protection of cells still alive after UV radiation ([1]; 3 wt. % glycogen in culture medium, 4 days after UV radiation) | oxygen consumption ([2]; 3 wt. % glycogen added to control liquid (buffer))
1 | CN(CC(=O)O)C(=N)N [creatine, N-carbamidoyl-N-methylglycine] | 110% | 119% | – | –
2 | glycogen | – | – | 128% | 135%
